Measured values as given in article PMC8536644, “Enigmatic mechanism of the N-vinylpyrrolidone hepatocarcinogenicity in the rat” (Archives of Toxicology, 2021).
“And” between values parts separate entries of the source, which are not always exact repeats. Identical values can stand only once. Like-named read-outs stand apart in the source and are kept apart here.

Assays:
rat lung cells = test: Comet assay, conventional (no FPG), lung; details: lung, male, no FPG, 20 ppm inhalation, 5 days
Procedure: (§1) Animals were anesthetized by 3.5% isoflurane (approximately 3 min, evaporator Dräger Vapor 19.3) and then killed by cervical dislocation. The liver was removed and its left lateral lobe used for the Comet assay. The remainder of the liver was washed in saline and then in two aliquots shock frozen in liquid nitrogen and stored at − 80 °C for later examinations. Subsequently the lung was removed from the dead animal. Its left lobe was used for the Comet assay and the remainder treated as described above for the liver. Thereafter the femora were removed for the preparation of the bone marrow.
(§2) The Comet assay was performed under alkaline conditions according to the principles described by Singh et al. ([1988]) and Tice et al. ([2000]).
(§3) Liver and lung cells were obtained essentially as described by Hartmann et al. ([2004]) and by the Japanese Center for the Validation of Alternative Methods (JaCVAM [2009]). Single cells were obtained within 1 h after killing of the animals in order to minimize DNA damage during the preparation.
(§4) The organ parts (see above) were washed in mincing buffer (50 mM EDTA in HBSS [without Ca^2+ and Mg^2+] pH 7.5: DMSO 9:1 (v/v), the latter added shortly before use, stored at 4 °C), cut into 1 to 2-mm pieces in ice-cold mincing buffer and transferred to a cell sieve with 70-µm pores. The viability of the cell suspension was evaluated by the Trypan Blue Assay (Strober [2001]).
(§5) 100 µL of the obtained cell suspension was mixed at 37 °C with 900 µL Low Melting Agarose (LMA) (0.7% agarose in phosphate-buffered saline [PBS] [Biochrom, Berlin, Germany] without Ca^2+ and Mg^2+). 100 µL of this mixture was transferred to a slide, which had been coated with Normal Melting Agarose (NMA) (0.6% agarose in PBS without Ca^2+ and Mg^2+). The slides were protected with a cover slip and the agarose was hardened at approximately 4 °C. The cover slips were then removed and the slides put over night at 4 °C into lysis buffer (2.5 M NaCl, 125 mM NaOH, 127 mM EDTA, 10 mM Tris/NaOH, pH 10; 1% Triton X-100 and 10% DMSO (v/v), the latter two added before use) in order to lyse the cell membrane, nuclear membrane and remove the histone.
(§6) The then following procedures were performed in a shaded room to minimize UV-mediated DNA damage during the procedures.
(§7) Remaining lysis buffer or FPG buffer was removed by immersing/washing the slides in PBS (without Ca^2+ and Mg^2+).
The slides were then placed into the electrophoresis chamber, which was cooled and protected from light. Slides were covered with electrophoresis buffer (0.3 M NaOH, 1 mM EDTA, pH > 13) carefully avoiding air bubbles. The DNA was allowed to unwind (20 min). Thereafter the electrophoresis was started (25 V, 300 mA, […], 30 min). The slides were then washed (2 times 5 min) in neutralization buffer (0.4 M Tris/HCl, pH 7.5), dehydrated and fixed in 100% ethanol (1 min), dried at room temperature overnight and stored at room temperature protected from dust.
Quantitative evaluation of the Comet assays was performed by fluorescence microscopy after DNA staining with ethidium bromide.

[1] = Trypan Blue viability of the single cell suspension, lung; format: in vivo, rat; details: rat, inhaled
rat liver cells = test: Comet assay in presence of FPG, liver; details: liver, with FPG, 5 days; for TI (%), mean of medians from 2 slides: individual animals
Procedure: as §1, §2, §3, §4, §5, §6
Those slides which were destined to be treated with the DNA base excision repair enzyme FPG (Sigma Aldrich, Steinheim, Germany) were washed (3 times for 5 min) with FPG buffer (0.04 M HEPES, 0.5 mM EDTA, 0.1 M KCl, pH 8; add shortly before use bovine serum albumin [BSA] to a final concentration of 0.02%). Subsequently 50 µL FPG-enzyme-buffer (prepared shortly prior to use by 30-fold dilution of the following suspension in FPG buffer: 7 µL FPG-enzyme (14 U) and 70 µL glycerol in 623 µL FPG-Puffer, stored at − 80 °C) was pipetted on the slide which was covered with a cover slide and incubated for 30 min at 37 °C while being placed on a humid filter paper. After hardening of the agarose cover slips were removed.
as §7

## C=CN1CCCC1=O [NVP, N-vinylpyrrolidone]
Rat lung cells
  Hedgehogs/100 cells (mean ± SD): 3 ± 1 /100 cells
  TI (%) (mean ± SD): 0.6 ± 0.28%
Rat lung cells; individual animals
  TI (%), mean of medians from 2 slides: 0.4% and 0.9% and 0.6% and 0.3%
[1]; both sexes, Wistar Crl:WI (Han), lung single cell suspension, lung cells, NVP-exposed, read-out: Viability, range of the individual animals
  viability at 5 days: 93 to 100%
[1]; female, Wistar, lung, 5 ppm, lung, female, Comet with FPG (Table 11), 5 ppm inhalation, 5 days, individual animals, read-out: Individual viability (%)
  viability at 5 days: 99%
[1]; female, Wistar, lung, 5 ppm, lung, female, Comet with FPG (Table 11), 5 ppm inhalation, 5 days, read-out: Viability (%) (mean ± SD)
  viability at 5 days: 99 ± 1%
[1]; female, Wistar, lung, 5 ppm, lung, female, no FPG, 5 ppm inhalation, 5 days, individual animals, read-out: Individual viability (%)
  viability at 5 days: 99%
[1]; female, Wistar, lung, 5 ppm, lung, female, no FPG, 5 ppm inhalation, 5 days, read-out: Viability (%) (mean ± SD)
  viability at 5 days: 99 ± 1%
[1]; female, Wistar, lung, 10 ppm, lung, female, Comet with FPG (Table 11), 10 ppm inhalation, 5 days, individual animals, read-out: Individual viability (%)
  viability at 5 days: 98%
[1]; female, Wistar, lung, 10 ppm, lung, female, Comet with FPG (Table 11), 10 ppm inhalation, 5 days, read-out: Viability (%) (mean ± SD)
  viability at 5 days: 98 ± 1%
[1]; female, Wistar, lung, 10 ppm, lung, female, no FPG, 10 ppm inhalation, 5 days, individual animals, read-out: Individual viability (%)
  viability at 5 days: 98%
[1]; female, Wistar, lung, 10 ppm, lung, female, no FPG, 10 ppm inhalation, 5 days, read-out: Viability (%) (mean ± SD)
  viability at 5 days: 98 ± 1%
[1]; female, Wistar, lung, 20 ppm, lung, female, Comet with FPG (Table 11), 20 ppm inhalation, 5 days, individual animals, read-out: Individual viability (%)
  viability at 5 days: 98%
[1]; female, Wistar, lung, 20 ppm, lung, female, Comet with FPG (Table 11), 20 ppm inhalation, 5 days, read-out: Viability (%) (mean ± SD)
  viability at 5 days: 98 ± 1%
[1]; female, Wistar, lung, 20 ppm, lung, female, no FPG, 20 ppm inhalation, 5 days, individual animals, read-out: Individual viability (%)
  viability at 5 days: 98%
[1]; female, Wistar, lung, 20 ppm, lung, female, no FPG, 20 ppm inhalation, 5 days, read-out: Viability (%) (mean ± SD)
  viability at 5 days: 98 ± 1%
[1]; male, Wistar, lung, 5 ppm, lung, male, Comet with FPG (Table 10), 5 ppm inhalation, 5 days, individual animals, read-out: Individual viability (%)
  viability at 5 days: 97%
[1]; male, Wistar, lung, 5 ppm, lung, male, Comet with FPG (Table 10), 5 ppm inhalation, 5 days, read-out: Viability (%) (mean ± SD)
  viability at 5 days: 98 ± 1%
[1]; male, Wistar, lung, 5 ppm, lung, male, no FPG, 5 ppm inhalation, 5 days, individual animals, read-out: Individual viability (%)
  viability at 5 days: 97%
[1]; male, Wistar, lung, 5 ppm, lung, male, no FPG, 5 ppm inhalation, 5 days, read-out: Viability (%) (mean ± SD)
  viability at 5 days: 98 ± 1%
[1]; male, Wistar, lung, 10 ppm, lung, male, Comet with FPG (Table 10), 10 ppm inhalation, 5 days, individual animals, read-out: Individual viability (%)
  viability at 5 days: 99%
[1]; male, Wistar, lung, 10 ppm, lung, male, Comet with FPG (Table 10), 10 ppm inhalation, 5 days, read-out: Viability (%) (mean ± SD)
  viability at 5 days: 98 ± 2%
[1]; male, Wistar, lung, 10 ppm, lung, male, no FPG, 10 ppm inhalation, 5 days, individual animals, read-out: Individual viability (%)
  viability at 5 days: 99%
[1]; male, Wistar, lung, 10 ppm, lung, male, no FPG, 10 ppm inhalation, 5 days, read-out: Viability (%) (mean ± SD)
  viability at 5 days: 98 ± 2%
[1]; male, Wistar, lung, 20 ppm, lung, male, Comet with FPG (Table 10), 20 ppm inhalation, 5 days, individual animals, read-out: Individual viability (%)
  viability at 5 days: 100%
[1]; male, Wistar, lung, 20 ppm, lung, male, Comet with FPG (Table 10), 20 ppm inhalation, 5 days, read-out: Viability (%) (mean ± SD)
  viability at 5 days: 99 ± 1%
[1]; male, Wistar, lung, 20 ppm, lung, male, no FPG, 20 ppm inhalation, 5 days, individual animals, read-out: Individual viability (%)
  viability at 5 days: 100%
[1]; male, Wistar, lung, 20 ppm, lung, male, no FPG, 20 ppm inhalation, 5 days, read-out: Viability (%) (mean ± SD)
  viability at 5 days: 99 ± 1%
Rat liver cells; female, 5 ppm inhalation
  Hedgehogs/100 cells (mean ± SD): 4 ± 2 /100 cells
  TI (%), mean of medians from 2 slides: 6.5% and 8.4% and 9.0% and 9.3% and 5.6% and 7.1%
Rat liver cells; female, 10 ppm inhalation
  Hedgehogs/100 cells (mean ± SD): 3 ± 2 /100 cells
  TI (%) (mean ± SD): 7.9 ± 2.74%
  TI (%), mean of medians from 2 slides: 5.5% and 10.7% and 5.6% and 5.3% and 9.4% and 11.0%
Rat liver cells; female, 20 ppm inhalation
  Hedgehogs/100 cells (mean ± SD): 4 ± 2 /100 cells
  TI (%) (mean ± SD): 7.0 ± 1.97%
  TI (%), mean of medians from 2 slides: 9.2% and 5.2% and 8.3% and 6.3% and 8.6% and 4.4%
Rat liver cells; male, 5 ppm inhalation
  Hedgehogs/100 cells (mean ± SD): 1 ± 1 /100 cells
  TI (%) (mean ± SD): 5.3 ± 1.09%
  TI (%), mean of medians from 2 slides: 4.3% and 5.8% and 5.2% and 4.0% and 7.0% and 5.7%
Rat liver cells; male, 10 ppm inhalation
  Hedgehogs/100 cells (mean ± SD): 2 ± 1 /100 cells
  TI (%) (mean ± SD): 6.1 ± 1.67%
  TI (%), mean of medians from 2 slides: 8.3% and 7.5% and 3.7% and 4.9% and 6.5% and 5.8%
Rat liver cells; male, 20 ppm inhalation
  Hedgehogs/100 cells (mean ± SD): 2 ± 1 /100 cells
  TI (%) (mean ± SD): 5.0 ± 1.09%
  TI (%), mean of medians from 2 slides: 6.8% and 4.4% and 5.0% and 4.7% and 3.6% and 5.6%
